In BindingDB's records for doi:10.7270/Q2DF6PMF (Nmmlsc, 2007):

Biological target: T1, N-formyl peptide receptor 2 (Homo sapiens, UniProt P25090)
T1 sequence (P25090 whole entry): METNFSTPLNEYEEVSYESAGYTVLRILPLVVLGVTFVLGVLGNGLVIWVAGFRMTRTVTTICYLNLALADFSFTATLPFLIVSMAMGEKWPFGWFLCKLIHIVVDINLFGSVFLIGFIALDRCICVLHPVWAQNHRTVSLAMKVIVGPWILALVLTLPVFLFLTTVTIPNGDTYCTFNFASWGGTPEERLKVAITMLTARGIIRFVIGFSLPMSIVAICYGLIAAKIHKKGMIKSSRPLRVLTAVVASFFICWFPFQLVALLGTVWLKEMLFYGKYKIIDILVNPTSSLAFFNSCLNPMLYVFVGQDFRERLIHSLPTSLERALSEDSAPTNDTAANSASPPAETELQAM
Assay: concentration-dependent FPRL1 ligand displacement – cell-based, FPR counter-screen, fluorescent ligand, dose response (AID 520)

SMILES	IC50 [µM]	Ki [µM]
Cc1cc(N2C(=O)C(=O)C(C(=O)c3ccco3)C2c2cccnc2)no1 (centres undefined) [3-(furan-2-carbonyl)-4-hydroxy-1-(5-methyl-1,2-oxazol-3-yl)-2-pyridin-3-yl-2H-pyrrol-5-one]	> 66.7	> 40.3
O=C1C(=O)N(CC2CCCO2)C(c2cccnc2)C1C(=O)c1ccco1 (centres undefined) [3-(furan-2-carbonyl)-4-hydroxy-1-(oxolan-2-ylmethyl)-2-pyridin-3-yl-2H-pyrrol-5-one]	> 66.7	> 40.3
COCc1cc(C2C(C(=O)c3ccco3)C(=O)C(=O)N2CCOCCO)ccc1O (centres undefined) [3-(furan-2-carbonyl)-4-hydroxy-1-[2-(2-hydroxyethoxy)ethyl]-2-[4-hydroxy-3-(methoxymethyl)phenyl]-2H-pyrrol-5-one]	> 66.7	> 40.3
C=CCOc1ccc(C2C(C(=O)c3ccco3)C(=O)C(=O)N2Cc2cccnc2)cc1 (centres undefined) [3-(furan-2-carbonyl)-4-hydroxy-2-(4-prop-2-enoxyphenyl)-1-(pyridin-3-ylmethyl)-2H-pyrrol-5-one]	> 66.7	> 40.3
Cc1nc2c(-c3ccc(F)cc3)c(C)nn2c(C)c1CCC(=O)NC(C)CCc1ccco1 (centres undefined) [3-[3-(4-fluorophenyl)-2,5,7-trimethyl-6-pyrazolo[1,5-a]pyrimidinyl]-N-[4-(2-furanyl)butan-2-yl]propanamide]	> 66.7	–
CCOC(=O)CCn1nc(-c2ccc(Cl)cc2)cc1N [3-[5-amino-3-(4-chlorophenyl)-1-pyrazolyl]propanoic acid ethyl ester]	> 66.7	–
Cc1ccc(Nc2ccc(C(=O)O)cc2N)cc1 [3-amino-4-(4-methylanilino)benzoic acid]	> 66.7	–
COc1ccc2ccccc2c1C1CC(=O)N2CN(C3CCCCC3)CSC2=C1C#N (centres undefined) [3-cyclohexyl-8-(2-methoxynaphthalen-1-yl)-6-oxo-2,4,7,8-tetrahydropyrido[2,1-b][1,3,5]thiadiazine-9-carbonitrile]	> 66.7	–
O=C1CCCC(=O)C1C(C#Cc1ccccc1)C1C(=O)CCCC1=O [3-hydroxy-2-[1-(2-hydroxy-6-keto-cyclohexen-1-yl)-3-phenyl-prop-2-ynyl]cyclohex-2-en-1-one]	> 66.7	> 40.3
COc1ccc(-c2cc(C(F)(F)F)nc(N3CCCCC3)n2)cc1OC [4-(3,4-dimethoxyphenyl)-2-(1-piperidinyl)-6-(trifluoromethyl)pyrimidine]	> 66.7	–
CCOC(=O)c1ccc(NC(=O)Nc2ccc3c4c(cccc24)C(=O)N3CC)cc1 [4-[(1-ethyl-2-keto-benzo[cd]indol-6-yl)carbamoylamino]benzoic acid ethyl ester]	> 66.7	–
COC(=O)c1ccc(C2C(C(=O)c3ccc(OC)cc3)C(=O)C(=O)N2Cc2ccco2)cc1 (centres undefined) [4-[(3Z)-1-(2-furanylmethyl)-3-[hydroxy-(4-methoxyphenyl)methylidene]-4,5-dioxo-2-pyrrolidinyl]benzoic acid methyl ester]	> 66.7	> 40.3
COC(=O)c1[nH]c(C)c(C(=O)C2C(=O)C(=O)N(CCN3CCOCC3)C2c2cccnc2)c1C (centres undefined) [4-[(E)-hydroxy-[1-[2-(4-morpholinyl)ethyl]-4,5-dioxo-2-(3-pyridinyl)-3-pyrrolidinylidene]methyl]-3,5-dimethyl-1H-pyrrole-2-carboxylic acid methyl ester]	> 66.7	> 40.3
CCOC(=O)N1CCC(NC(=O)c2cc(C(=O)Nc3ccc(OC)c(OC)c3)ccc2CO)CC1 [4-[[5-[(3,4-dimethoxyphenyl)carbamoyl]-2-methylol-benzoyl]amino]piperidine-1-carboxylic acid ethyl ester]	> 66.7	–
O=C(c1ccc(Cl)cc1)N(Cc1cccs1)C1CCS(=O)(=O)C1 (centres undefined) [4-chloro-N-(1,1-diketothiolan-3-yl)-N-(2-thenyl)benzamide]	> 66.7	–
O=C(O)CCCNc1cc(N2CCC3(CC2)OCCO3)c2noc3c2c1C(=O)c1ccccc1-3 [4-{[3-(1,4-dioxa-8-azaspiro[4.5]dec-8-yl)-6-oxo-6H-anthra[1,9-cd]isoxazol-5-yl]amino}butanoic acid]	10.9	–
COc1ccc(-c2nnc(Nc3nc4c(OC)cccc4s3)o2)c(OC)c1 [5-(2,4-dimethoxyphenyl)-N-(4-methoxy-1,3-benzothiazol-2-yl)-1,3,4-oxadiazol-2-amine]	> 66.7	–
Clc1ccc(C2CC(c3cccs3)n3ncnc3N2)cc1Cl (centres undefined) [5-(3,4-dichlorophenyl)-7-(2-thienyl)-1,5,6,7-tetrahydro-[1,2,4]triazolo[1,5-a]pyrimidine]	> 66.7	–
Cc1cccc(C2CC(c3ccc(Cl)cc3)Nc3nc(N)nn32)c1 (centres undefined) [5-(4-chlorophenyl)-7-(3-methylphenyl)-1,5,6,7-tetrahydro-[1,2,4]triazolo[1,5-a]pyrimidin-2-amine]	> 66.7	–
COc1ccc(-c2nc(-c3ccc(NC(=O)c4ccc(Br)o4)cc3)no2)cc1OC [5-bromanyl-N-[4-[5-(3,4-dimethoxyphenyl)-1,2,4-oxadiazol-3-yl]phenyl]furan-2-carboxamide]	> 66.7	–
Cc1nc2c(C#N)c[nH]n2c(=O)c1Cc1ccccc1 [5-methyl-7-oxo-6-(phenylmethyl)-1H-pyrazolo[1,5-a]pyrimidine-3-carbonitrile]	> 66.7	–
CCCCCNC(=O)c1ccc2c(=O)[nH]c3c(C(=O)NCC4CCCO4)sc(=S)n3c2c1 (centres undefined) [5-oxo-N3-(2-oxolanylmethyl)-N8-pentyl-1-sulfanylidene-4H-thiazolo[3,4-a]quinazoline-3,8-dicarboxamide]	> 66.7	–
Cc1ccsc1C1C2C(=O)CC(C)(C)CC2=Nc2ncnn21 (centres undefined) [6,6-dimethyl-9-(3-methyl-2-thienyl)-1,5,7,9-tetrahydro-[1,2,4]triazolo[5,1-b]quinazolin-8-one]	> 66.7	> 40.3
Clc1ccc(Cc2nn3c(-c4ccncc4)nnc3s2)cc1 [6-(4-chlorobenzyl)-3-(4-pyridyl)-[1,2,4]triazolo[3,4-b][1,3,4]thiadiazole]	> 66.7	–
COc1ccc(-c2nc(N3CCCC3)[nH]c(=O)c2C#N)cc1 [6-(4-methoxyphenyl)-4-oxidanylidene-2-pyrrolidin-1-yl-1H-pyrimidine-5-carbonitrile]	> 66.7	–
COc1cc(-n2nc(C)c3c2OC(=N)C(C#N)C3c2ccccc2)c(Cl)c(Br)c1O (centres undefined) [6-amino-1-(3-bromo-2-chloro-4-hydroxy-5-methoxyphenyl)-3-methyl-4-phenyl-1,4-dihydropyrano[2,3-c]pyrazole-5-carbonitrile]	> 66.7	> 40.3
CSCCC1c2c(-c3cccs3)n[nH]c2OC(=N)C1C#N (centres undefined) [6-azanyl-4-(2-methylsulfanylethyl)-3-thiophen-2-yl-2,4-dihydropyrano[2,3-c]pyrazole-5-carbonitrile]	> 66.7	> 40.3
Cc1c(C)c2cc(Cl)c(O)c(CN3CCCCC3)c2oc1=O [6-chloranyl-3,4-dimethyl-7-oxidanyl-8-(piperidin-1-ylmethyl)chromen-2-one]	> 66.7	–

More lines, now with the values ahead:

IC50 [µM]	Ki [µM]	SMILES
> 66.7	> 40.3	COCCCN1C(=O)C(=O)C(C(=O)c2ccco2)C1c1ccccc1 (centres undefined) [3-(furan-2-carbonyl)-4-hydroxy-1-(3-methoxypropyl)-2-phenyl-2H-pyrrol-5-one]
> 66.7	> 40.3	COc1cc(C2C(C(=O)c3ccco3)C(=O)C(=O)N2CCc2ccccc2)ccc1O (centres undefined) [3-(furan-2-carbonyl)-4-hydroxy-2-(4-hydroxy-3-methoxyphenyl)-1-(2-phenylethyl)-2H-pyrrol-5-one]
> 66.7	–	O=C(Cn1c(=O)oc2ccccc21)N1CCN(c2ccccc2)CC1 [3-[2-keto-2-(4-phenylpiperazino)ethyl]-1,3-benzoxazol-2-one]
> 66.7	–	Cc1ccccc1Nc1cc2ccccc2c(O)n1 [3-[(2-methylphenyl)amino]-2H-isoquinolin-1-one]
> 66.7	–	Cc1c(C(=O)NC2CCCc3ccccc32)oc2ccc(S(=O)(=O)N3CCOCC3)cc12 (centres undefined) [3-methyl-5-(4-morpholinylsulfonyl)-N-(1,2,3,4-tetrahydronaphthalen-1-yl)-2-benzofurancarboxamide]
> 66.7	–	O=C(Nc1nnc(-c2ccccc2Cl)o1)c1ccc(S(=O)(=O)N2CCCCCC2)cc1 [4-(1-azepanylsulfonyl)-N-[5-(2-chlorophenyl)-1,3,4-oxadiazol-2-yl]benzamide]
> 66.7	–	CC1Oc2ccccc2N(Cc2ccccc2Cl)C1=O (centres undefined) [4-(2-Chloro-benzyl)-2-methyl-4H-benzo[1,4]oxazin-3-one]
> 66.7	–	COc1ccc(-c2cc(C(F)(F)F)nc(N3CCN(c4ccccc4)CC3)n2)cc1OC [4-(3,4-dimethoxyphenyl)-2-(4-phenyl-1-piperazinyl)-6-(trifluoromethyl)pyrimidine]
> 66.7	–	CC1CCN(c2nc(-c3ccccc3)c(C#N)c(=O)[nH]2)CC1 [4-hydroxy-2-(4-methylpiperidin-1-yl)-6-phenylpyrimidine-5-carbonitrile]
> 66.7	–	O=C(Nc1ccc(Nc2ccccc2)cc1)c1ccc(Br)o1 [5-bromanyl-N-(4-phenylazanylphenyl)furan-2-carboxamide]
> 66.7	–	O=C(O)C1CC=CCC1C(=O)N1CCN(c2nc(-c3ccccc3)c3ccccc3n2)CC1 (centres undefined) [6-[4-(4-phenylquinazolin-2-yl)piperazin-1-yl]carbonylcyclohex-3-ene-1-carboxylic acid]
> 66.7	–	Oc1cc(-c2ccccc2)nc(N2CCN(Cc3ccccc3)CC2)n1 [6-phenyl-2-[4-(phenylmethyl)-1-piperazinyl]-1H-pyrimidin-4-one]
> 66.7	–	COc1ccc2cnn(-c3ccccc3)c(=O)c2c1OC [7,8-dimethoxy-2-phenyl-1(2H)-phthalazinone]
> 66.7	–	COc1ccc2c(=O)c(-c3cnn(-c4ccccc4)c3)c(C)oc2c1 [7-methoxy-2-methyl-3-(1-phenyl-1H-pyrazol-4-yl)-4H-chromen-4-one]
